From patent US10889553B2, “Asymmetric triazole benzamide derivatives and the compositions and methods of treatment regarding the same” (NysnoBio Ireland DAC, priority 2017, dated 2021)
Values joined by “and” are separate entries in the source; they are usually repeats but may differ in a detail not shown here. Equal values may be shown once.

target: T1, Parkin ligase (Homo sapiens, UniProt O60260); assay: Activity-Based Probe Assay using Ubiquitin vinyl sulfone probe (TR-FRET); assay type: biochemical; details: heat activated Parkin, HA-Ub-VS probe, activation EC50; read-out: Probe Assay EC50 (μM) [Example 2]
T1 sequence (O60260 1-465): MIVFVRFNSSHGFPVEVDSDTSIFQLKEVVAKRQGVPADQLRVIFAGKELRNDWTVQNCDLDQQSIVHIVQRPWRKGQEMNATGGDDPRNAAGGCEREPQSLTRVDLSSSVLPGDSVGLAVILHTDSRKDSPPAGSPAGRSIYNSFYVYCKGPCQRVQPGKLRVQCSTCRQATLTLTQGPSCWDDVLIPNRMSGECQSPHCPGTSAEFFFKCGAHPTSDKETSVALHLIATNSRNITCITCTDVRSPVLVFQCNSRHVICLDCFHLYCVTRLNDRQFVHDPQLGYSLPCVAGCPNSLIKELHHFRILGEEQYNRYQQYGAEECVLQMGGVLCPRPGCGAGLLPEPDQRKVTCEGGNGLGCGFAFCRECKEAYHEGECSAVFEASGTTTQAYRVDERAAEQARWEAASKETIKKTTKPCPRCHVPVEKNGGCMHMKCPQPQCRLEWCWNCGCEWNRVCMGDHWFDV
Method: An Ubiquitin vinyl sulfone probe can be used that irreversibly binds to the active site cysteine of Parkin ligase. Covalent attachment of the probe to the Parkin can be monitored by TR-FRET. Candidate activator compounds can be identified by increasing the activity of Parkin ligase due to an increase in TR-FRET signal. Screening for activating compounds can be distinguished from the controls as follows: 100% activation signal=Heat activated Parkin+100 nM control activator in DMSO. 0% activation signal=Heat activated Parkin+DMSO only. Parkin activators can be identified by an increase of the 0% activation signal TR-FRET signal. Assay Conditions: Materials: • Assay Plate: White 384 well plate (Corning 3572) • Enzyme: Parkin-His tagged 203 μM (10.5 mg/ml) • Probe: Ubiquitin vinyl-sulfone (HA-Ub-VS Boston Biochem U-212) • DMSO: DMSO (Sigma cat #D4540-100ML) • Reaction Buffer: 50 mM HEPES (pH 8.5), 150 mM NaCl, 0.01% Tween 20, 0.1% BSA • Detection Buffer: 50 mM HEPES (pH 8.5), 150 mM NaCl, 0.01% Tween 20, 0.1% BSA, 800 mM KF • Detection Reagent A: 2.6 nM Anti-6HIS-Eu cryptate and 40 nM Anti-HA-XL665 in detection buffer • Eu cryptate: Anti-6HIS-Eu cryptate (CisBio 61HISKLA) • XL665: Anti-HA-XL665 (CisBio 610HAXLA) Enzyme Reaction (15 Min Pre Incubation Parkin with Activator Only) • Parkin: 40 nM • HA-Ub-VS Probe: 70 nM • Activator/DMSO: 2× Activator/2% DMSO Reaction time: 60 minutes Temperature: 22° C. Total volume: 10 μl reaction Detection Reaction Take […] of Enzyme Reaction above and add 10 μl detection Reagent A under the following conditions: • Reaction time: 60 minutes • Temperature: 22° C. • Total volume: 20 μl
Assay procedure (Using HP D-300 compound dispenser and Bravo for the operation):
1) Heat activate Parkin in reaction buffer (500 μl/1.5 ml tube: Eppendorf Thermomixer 5 minutes, 400 rpm at 58° C. and put on ice until needed).
2) Load assay plate wells with 4.8 μl 84.5 nM Parkin in reaction buffer by use of Bravo.
3) Deliver 0.2 μl 200× activator candidates in DMSO by use of HP D-300 compound dispenser. Highest 200× concentration=[…] and then twofold dilutions.
4) Spin 1000 rpm, 2 minutes, at room temp.
5) Incubate plate for 15 minutes at room temp.
6) Add 5 μl 140 nM HA-Ub-VS Probe in reaction buffer by use of Bravo.
7) Spin 1000 rpm, 2 minutes, at room temp.
8) Incubate plate for 60 minutes at room temp.
9) Add 10 μl 2.6 nM Anti-6HIS-Eu cryptate and 40 nM […] in detection buffer.
10) Spin 1000 rpm, 2 minutes, at room temp.
11) Incubate plate for 60 minutes at room temp.
12) Read plates on Perkin Elmer Envision instrument with the following parameters:
LANCE dual laser protocol loaded into the Envision® software
Top Mirror: LANCE/DELFIA Duel/Bias (Bar code 446)
Emission Filter: APC 665 EM (Bar code 205)
2nd Emission Filter: Europium 615 EM (Bar code 203)
Read 655 nm (channel 1) and 615 nm (channel 2) wavelengths on Envision®
Data Analysis: The Data can be read in CSV files. There are two tables in those CSV files, which are the values of 655 nm (channel 1) and 615 nm (channel 2) wavelengths respectively. The data is converted to an HTRF Ratio=(Channel 1/Channel 2)*10,000
The average of all the 0 μM controls (DMSO only)=BKGD (Background—0% activation). Subtract BKGD from each HTRF Ratio value=HTRF−BKGD. The average of all the […] 100 nM control activator in DMSO controls=Max (100% activation). The following equation is then used to calculate % Activation for each well/candidate as follows: % Activation=(HTRF−BKGD/Max)*100.
Graphpad Prism was used with Transform X values: X=Log(X) and nonlinear regression (dose-response-stimulation): Log(agonist) vs Response−variable slope (four parameters) with constrains set to Bottom=0 and Top=100.
The Activity-Based Probe Assay was performed with various compounds in Tables 1, 2, 3A and 3B.

EC50	SMILES
16 µM and > 100 µM	Cc1ccccc1C(=O)Nc1nc(NC(=O)[C@@H]2C[C@H](F)CN2)nn1-c1ccccc1 [Compound 3]
1 µM	Cc1ccccc1C(=O)Nc1nc(NCCc2ccccc2)nn1-c1ccc(C(F)(F)F)cc1 [Compound 103]
1 µM	Cc1ccccc1C(=O)Nc1nc(NCc2ccccc2)nn1-c1ccc(OC(F)(F)F)cc1 [Compound 105]
> 100 µM	Cc1ccccc1C(=O)Nc1nc(NCCc2ccccc2)nn1-c1ccc(OC(F)(F)F)cc1 [Compound 106]
1 µM	COc1ccc(CNc2nc(NC(=O)c3ccccc3C)n(-c3ccc(OC(F)(F)F)cc3)n2)cc1 [Compound 107]
1 µM	Cc1ccccc1C(=O)Nc1nc(NCCc2ccccc2)nn1-c1ccc(Cl)cc1 [Compound 109]
2 µM	COc1cccc(CNc2nc(NC(=O)c3ccccc3C)n(-c3ccc(OC(F)(F)F)cc3)n2)c1 [Compound 110]
2 µM	COc1ccccc1CNc1nc(NC(=O)c2ccccc2C)n(-c2ccc(OC(F)(F)F)cc2)n1 [Compound 111]
1 µM	Cc1ccccc1C(=O)Nc1nc(NCc2cccc(Cl)c2)nn1-c1ccc(OC(F)(F)F)cc1 [Compound 112]
0.8 µM	Cc1ccccc1C(=O)Nc1nc(NCc2ccc(Cl)cc2)nn1-c1ccc(OC(F)(F)F)cc1 [Compound 113]
2 µM	Cc1ccccc1C(=O)Nc1nc(N[C@H](C)c2ccccc2)nn1-c1ccccc1 [Compound 114]
3 µM	Cc1ccccc1C(=O)Nc1nc(N[C@@H](C)c2ccccc2)nn1-c1ccccc1 [Compound 115]
2 µM	Cc1ccccc1C(=O)Nc1nc(N[C@@H](C)c2ccccc2)nn1-c1ccc(OC(F)(F)F)cc1 [Compound 117]
1 µM	Cc1ccccc1C(=O)Nc1nc(N[C@H](C)c2ccccc2)nn1-c1ccc(OC(F)(F)F)cc1 [Compound 118]
2 µM	Cc1ccccc1C(=O)Nc1nc(NC(=O)c2c(F)cccc2F)nn1-c1ccccc1 [Compound 119]
1 µM	Cc1ccccc1C(=O)Nc1nc(N[C@@H](C)c2ccccc2)nn1-c1ccc(C(F)(F)F)cc1 [Compound 120]
> 100 µM	Cc1ccccc1C(=O)Nc1nc(-c2cn(C)cn2)nn1-c1ccccc1 [Compound 125]
5 µM	Cc1ccccc1C(=O)Nc1nc(-c2cccc[n+]2[O-])nn1-c1ccccc1 [Compound 130]
> 100 µM	Cc1ccccc1C(=O)Nc1nc(-c2cscn2)nn1-c1ccccc1 [Compound 135]
> 100 µM	Cc1ccccc1C(=O)Nc1nc(-c2ncccc2F)nn1-c1ccccc1 [Compound 136]
> 100 µM	c1ccc(CNc2nc(NCc3ccccc3)n(-c3ccccc3)n2)cc1 [Compound 138]
0.9 µM	Cc1ccccc1C(=O)Nc1nc(-c2ncccc2C)nn1-c1ccc(OC(F)(F)F)cc1 [Compound 139]
> 100 µM	Cc1ccccc1C(=O)Nc1nc(-c2cocn2)nn1-c1ccccc1 [Compound 140]
1 µM	Cc1ccccc1C(=O)Nc1nc(-c2ncccc2C)nn1-c1ccc(C(F)(F)F)cc1 [Compound 141]
0.3 µM	Cc1ccccc1C(=O)Nc1nc(-c2ncccc2C)nn1-c1ccc(Cl)cc1 [Compound 142]
> 100 µM	c1ccc(CCNc2nc(NCCc3ccccc3)n(-c3ccccc3)n2)cc1 [Compound 143]
> 100 µM	c1ccc(-n2nc(NCc3ccccn3)nc2NCc2ccccn2)cc1 [Compound 144]
> 100 µM	c1ccc(-n2nc(NCCc3ccccn3)nc2NCCc2ccccn2)cc1 [Compound 145]
> 100 µM	Cn1cnc(-c2nc(N)n(-c3ccccc3)n2)c1 [Compound 147]
> 100 µM	Cc1ccccc1C(=O)N(C(=O)c1ccccc1)c1nc(N)n(-c2ccccc2)n1 [Compound 148]

system: TOV-21G (ovarian); assay: Cancer cell proliferation assay (acid phosphatase); assay type: cell-based; details: Homo sapiens, TOV21G, 72 h, Table 6A; 72 hrs; read-out: TOV-21G IC50
Method: Measurement of the inhibitive effect of compounds on cancer cell proliferation was performed. Various cell lines were tested, including HCT-116 (colon); A549 (lung); TOV-21G (ovarian); Calu-6 (lung); and LS-174T (colon); and cell lines H1703 (Lung) and SKOV3 (ovarian); JEKO-1 (lymophoma); TOV-112D (ovarian) are tested. The assays were performed under the following conditions: Cells are harvested at a concentration of 4×10^4 cells/ml in media. Volumes of 100 μl/well of these cell suspensions were added to a 96 well plate using a multichannel pipette. Plates were gently agitated to ensure an even dispersion of cells over a given plate. Cells were then incubated at 37° C., 5% CO2 overnight. Following this, 100 μl of compound at varying concentrations was added to wells in triplicate. Control wells are those with 100 μl media containing 0.33% DMSO added to cell suspension (this is the equivalent volume of DMSO found in the highest concentration of drug). Plates were then gently agitated, as above, and incubated at 37° C., 5% CO2 for 72 hrs (control wells have reached 80-90% confluency). Assessment of cell proliferation in the presence of the compound was determined by the acid phosphatase assay.
Following the incubation period of 72 hrs, media was removed from the plates. Each well on the plate was washed twice with 100 μl PBS. This was then removed and 100 μl of freshly prepared phosphatase substrate (10 mM p-nitrophenol phosphate in 0.1M sodium acetate, 0.1% triton X-100, pH 5.5) was added to each well. The plates were then incubated in the dark at 37° C. for 2 hours. Colour development was monitored during this time. The enzymatic reaction was stopped by the addition of 50 μl of 1N NaOH. The plate was read in a dual beam plate reader at 405 nm with a reference wavelength of 620 nm. The absorbance reading of the latter is subtracted from the former, and the effect of the drug on cell proliferation was then measured as a percentage against the control cells (DMSO), which is taken as 0% inhibition.

IC50	SMILES
2400 nM	Cc1ccccc1C(=O)Nc1nc(NC(=O)[C@@H]2C[C@H](F)CN2)nn1-c1ccccc1 [Compound 3]
